Assay results taken from patent US4372975A, “Substituted 2-benzoyl-4-chloroglycinanilide derivatives, a process for their production, and their use as medicaments” (Pierre Fabre SA, priority 1977, dated 1983).
Counter-ions that a name gives are not always drawn. Like-named read-outs stand apart in the source and are kept apart here.

Assays:
[1] = Solubility; format: physicochemical; details: for solubility in ethanol: in ethanol at 95° GL; for solubility in water (in words) / solubility: in water
[2] = Toxicity test (LD50, Miller and Tainter); details: mouse, in vivo, mice
Protocol: The compounds according to the invention were subjected to toxicity tests. It was tested in batches of 10 mice by oral, intraperitoneal and, in some cases, intravenous administration and was calculated in accordance with Miller and Tainter's method (Proc. Soc. exper. Biol. Med., 1944, 57, 261).

[3] = tested on: pentamethylene tetrazole-induced tonic spasms; test: Anti-pentamethylene tetrazole activity; format: in vivo, male mice of the Swiss strain; details: for ED50: Mus musculus; for Activity antipentetrazol (VO), at 10 mg: 10 mg (mg/kg)
Protocol: This test is carried out on a group of 10 male mice of the Swiss strain. 15 minutes after the subcutaneous injection of 125 mg/kg of pentamethylene tetrazole, the mice have tonic spasms of which the outcome is fatal.
For the test, the compound is administered orally 60 minutes before the injection of pentamethylene tetrazole. The animals are observed for 2 hours after administration of the pentamethylene tetrazole. In some particular cases, the tests were confirmed by intraperitoneal administration. The results are expressed by the effective dose DE50 (Goodman et Col.--J. Pharmacol. 108, 1953).
As Japanese Pat. No. 148,340 has been cited in copending application Ser. No. 916,651, filed June 19, 1978, comparisons between compounds of this closest prior art and the compounds of the invention were undertaken in the form of a controlled study.
The major consideration surrounded the similarity in the compounds, particularly in the substitution at the R position. The study compared ten compounds of the invention, which differed from the Japanese prior art only in that the compounds of the invention are alkylated at the R position while the prior art compounds are all hydrogenated at that position.
The compounds were tested for anti-pentamethylene tetrazole activity, the test described on p.

[4] = ip, intraperitoneal, read-out: DL50 I.P.
[5] = oral, 60 min before 125 mg/kg s.c. pentamethylene tetrazole, male Swiss mice, read-out: anti-pentamethylene tetrazole activity DE50 P.O.
[6] = po, prior art comparison, VO, dose giving 50% inhibition, read-out: Activity antipentetrazol (VO), 50% inhibition

SMILES | LD50 [2, 4] [mg/kg] | LD50 ([2]; oral, read-out: DL50 oral) [mg/kg] | ED50 [3, 5] [mg/kg] | solubility [1] [mg/mL] | further results
CN(C(=O)Cn1ccnc1)c1ccc(Cl)cc1C(=O)c1ccccc1 [Example 23, N-Methyl-2-imidazolyl-(2-benzoyl-4-chloro)-acetanilide] | 500 | 1000 | – | – | solubility in dimethyl formamide [1]: 20%; solubility in ethanol [1]: 10%; solubility in water (in words) [1]: insoluble
C#CC(C)(C)NCC(=O)N(C)c1ccc(Cl)cc1C(=O)c1ccccc1 [Example 2, N-Methyl-N'-1,1-dimethyl-propargyl-(2-benzoyl-4-chloro)-glycinanilide hydrochloride] | 450 | > 1000 | 1.5 | 10 | –
CN(C(=O)CNC1CC1)c1ccc(Cl)cc1C(=O)c1ccccc1 [Example 10, N-Methyl-N'-cyclopropyl-(2-benzoyl-4-chloro)-glycinanilide hydrochloride] | – | – | 0.8 | 13 | –
C=CCNCC(=O)Nc1ccc(Cl)cc1C(=O)c1ccccc1 [R = H, R1 = H, R2 = CH2CHCH2, reference compound] | – | – | – | – | Activity antipentetrazol (VO), at 10 mg ([3]; prior art comparison, VO): inactive
COCCNCC(=O)Nc1ccc(Cl)cc1C(=O)c1ccccc1 [R = H, R1 = H, R2 = CH2CH2OCH3, reference compound] | – | – | – | – | Activity antipentetrazol (VO), at 10 mg ([3]; prior art comparison, VO): inactive
CC(CNCC(=O)Nc1ccc(Cl)cc1C(=O)c1ccccc1)c1ccccc1 (stereo not shown) [reference compound] | – | – | – | – | Activity antipentetrazol (VO), at 10 mg ([3]; prior art comparison, VO): inactive
C#CC(CC)(CC)NCC(=O)N(C)c1ccc(Cl)cc1C(=O)c1ccccc1 [Example 8, N-Methyl-N'-(1',1'-diethyl-propargyl)-(2-benzoyl-4-chloro)-glycinanilide hydrochloride] | 400 | 1000 | 4.1 | – | solubility in dimethyl formamide [1]: 1%; solubility in ethanol [1]: 1%; solubility in water (in words) [1]: insoluble
CNC1=Nc2ccc(Cl)cc2C(c2ccccc2)=[N+]([O-])C1 [chlordiazepoxide, reference compound] | – | – | 5 | – | –
CN(C(=O)CN(C)C1CCCCC1)c1ccc(Cl)cc1C(=O)c1ccccc1 [Example 20, N,N'-Dimethyl-N'-cyclohexyl-(2-benzoyl-4-chloro)-glycinanilide hydrochloride] | > 500 | > 1000 | 1.9 | 20 | –
CC(C)N(CC(=O)N(C)c1ccc(Cl)cc1C(=O)c1ccccc1)C1CCCCC1 [Example 21, N-Methyl-N'-isopropyl-N'-cyclohexyl-(2-benzoyl-4-chloro)glycinanilide hydrochloride] | 500 | 1000 | 2.2 | 50 | –
CN(C(=O)CNC(C)(C)CO)c1ccc(Cl)cc1C(=O)c1ccccc1 [Example 12, N-Methyl-N'-(1',1'-dimethyl-2'-hydroxyethyl)-(2-benzoyl-4-chloro)-glycinanilide] | – | – | – | – | solubility in dimethyl formamide [1]: 25%; solubility in ethanol [1]: 10%; solubility in water (in words) [1]: insoluble
CN(C(=O)CNCc1ccccc1)c1ccc(Cl)cc1C(=O)c1ccccc1 [Example 6, N-Methyl-N'-benzyl-(2-benzoyl-4-chloro)-glycinanilide hydrochloride] | – | – | – | 25 | –
CNCC(=O)Nc1ccc(Cl)cc1C(=O)c1ccccc1 [R = H, R1 = H, R2 = CH3, reference compound] | – | – | – | – | Activity antipentetrazol (VO), at 10 mg ([3]; prior art comparison, VO): inactive
CNCC(=O)N(C)c1ccc(Cl)cc1C(=O)c1ccccc1 [Example 3, N,N'-Dimethyl-(2-benzoyl-4-chloro)-glycinanilide hydrochloride] | – | – | – | 150 | ED50 [3, 6]: 1.7 mg/kg
CN(C(=O)CN(CCO)CCO)c1ccc(Cl)cc1C(=O)c1ccccc1 [Example 16, N-Methyl-N',N'-bis-(2'-hydroxyethyl)-(2-benzoyl-4-chloro)-glycinanilide hydrochloride] | > 500 | > 1000 | 3.4 | 50 | –
CN(C)CC(=O)Nc1ccc(Cl)cc1C(=O)c1ccccc1 [R = H, R1 = CH3, R2 = CH3, reference compound] | – | – | – | – | Activity antipentetrazol (VO), at 10 mg ([3]; prior art comparison, VO): inactive

SMILES | LD50 [2, 4] [mg/kg] | LD50 ([2]; oral, read-out: DL50 oral) [mg/kg] | ED50 [3, 5] [mg/kg] | solubility [1] [mg/mL] | further results
C#CC1(NCC(=O)N(C)c2ccc(Cl)cc2C(=O)c2ccccc2)CCCCC1 [Example 9, N-Methyl-N'-(1'-ethinyl-cyclohexyl)-(2-benzoyl-4-chloro)-glycinanilide hydrochloride] | 200 | 560 | 3.9 | – | solubility in dimethyl formamide [1]: 2%; solubility in ethanol [1]: 3%; solubility in water (in words) [1]: insoluble
CN(C(=O)CNCc1ccccc1)c1ccc(Cl)cc1C(=O)c1ccccc1 [drawing 35] | – | – | – | – | ED50 [3, 6]: 3 mg/kg
CC(CNCC(=O)N(C)c1ccc(Cl)cc1C(=O)c1ccccc1)c1ccccc1 (stereo not shown) | – | – | – | – | ED50 [3, 6]: 2.9 mg/kg
CC(C)NCC(=O)N(C)c1ccc(Cl)cc1C(=O)c1ccccc1 [Example 1, N-Isopropyl-N'-methyl-(2-benzoyl-4-chloro)-glycinanilide hydrochloride] | – | – | – | 10 | –
CN(C)CC(=O)N(C)c1ccc(Cl)cc1C(=O)c1ccccc1 [Example 4, N,N',N'-Trimethyl-(2-benzoyl-4-chloro)-glycinanilide] | – | – | – | – | ED50 [3, 6]: 1.7 mg/kg; solubility in dimethyl formamide [1]: 20%; solubility in ethanol [1]: 20%; solubility in water (in words) [1]: insoluble
CCC(CO)(CO)NCC(=O)N(C)c1ccc(Cl)cc1C(=O)c1ccccc1 [Example 13, N-Methyl-N'-(1'-ethyl-1'-hydroxymethyl-2'-hydroxyethyl)-(2-benzoyl-4-chloro)-glycinanilide hydrochloride] | – | – | – | 500 | –
CN(C(=O)CN1CCCCC1)c1ccc(Cl)cc1C(=O)c1ccccc1 [Example 17, N-Methyl-2-piperidino-(2'-benzoyl-4'-chloro)-acetanilide hydrochloride] | – | – | – | 500 | –
C=CCNCC(=O)N(C)c1ccc(Cl)cc1C(=O)c1ccccc1 [Example 7, N-methyl-N'-allyl-(2-benzoyl-4-chloro)-glycinanilide hydrochloride] | 500 | > 1000 | 1.9 | 30 | –
C#CC(C)(C)NCC(=O)Nc1ccc(Cl)cc1C(=O)c1ccccc1 [reference compound] | – | – | – | – | Activity antipentetrazol (VO), at 10 mg ([3]; prior art comparison, VO): inactive
CN1CCN(CC(=O)N(C)c2ccc(Cl)cc2C(=O)c2ccccc2)CC1 [Example 22, N-Methyl-4'-methyl-2-piperazino-(2-benzoyl-4-chloro)-acetanilide] | 500 | 1000 | – | – | solubility in dimethyl formamide [1]: 5%; solubility in ethanol [1]: 5%; solubility in water (in words) [1]: insoluble
CN(CCO)CC(=O)Nc1ccc(Cl)cc1C(=O)c1ccccc1 [R = H, R1 = CH3, R2 = CH2CH2 OH, reference compound] | – | – | – | – | Activity antipentetrazol (VO), at 10 mg ([3]; prior art comparison, VO): inactive
O=C(CNCc1ccccc1)Nc1ccc(Cl)cc1C(=O)c1ccccc1 [reference compound] | – | – | – | – | Activity antipentetrazol (VO), at 10 mg ([3]; prior art comparison, VO): inactive
CCN(CCO)CC(=O)N(C)c1ccc(Cl)cc1C(=O)c1ccccc1 [Example 15, N-Methyl-N'-ethyl-N'-(2'-hydroxyethyl)-(2-benzoyl-4-chloro)-glycinanilide] | 150 | 550 | 2.9 | – | solubility in dimethyl formamide [1]: 30%; solubility in ethanol [1]: 10%; solubility in water (in words) [1]: insoluble
C#CC(C)(C)NCC(=O)N(C)c1ccc(Cl)cc1C(=O)c1ccccc1 [drawing 31] | – | – | – | – | ED50 [3, 6]: 2.3 mg/kg
CN1C(=O)CN=C(c2ccccc2)c2cc(Cl)ccc21 [diazepam, reference compound] | – | – | 1 | – | –
